Measurements: the NIST ThermoML archive (doi:10.1016/j.fluid.2018.09.026)
Values joined by “and” are separate entries in the source; they are usually repeats but may differ in a detail not shown here. Equal values may be shown once.

Details: Liquid; for mass density: Vibrating tube method; for viscosity: Vibrating wire viscometry

OCCOCCOCCO [triethylene glycol]
Details	mass density [kg/m3]	viscosity
283.15 K, 100 kPa	1130.8	–
283.15 K, 660 kPa	1131	–
283.15 K, 1150 kPa	1131.2	–
283.15 K, 1570 kPa	1131.4	–
283.15 K, 2090 kPa	1131.6	–
283.15 K, 3090 kPa	1132	–
283.15 K, 5060 kPa	1132.9	–
283.15 K, 6940 kPa	1133.6	–
283.15 K, 10020 kPa	1134.9	–
283.15 K, 14850 kPa	1136.9	–
283.15 K, 19830 kPa	1138.9	–
283.15 K, 24700 kPa	1140.8	–
283.15 K, 29600 kPa	1142.7	–
283.15 K, 34510 kPa	1144.6	–
283.15 K, 39360 kPa	1146.4	–
283.15 K, 44290 kPa	1148.2	–
283.15 K, 49180 kPa	1150	–
283.15 K, 54110 kPa	1151.7	–
283.15 K, 58970 kPa	1153.4	–
283.15 K, 63860 kPa	1155.1	–
283.15 K, 68790 kPa	1156.8	–
293.15 K, 100 kPa	1122.9	–
293.15 K, 640 kPa	1123.1	–
293.15 K, 1090 kPa	1123.4	–
293.15 K, 1600 kPa	1123.6	–
293.15 K, 2140 kPa	1123.8	–
293.15 K, 3080 kPa	1124.2	–
293.15 K, 5030 kPa	1125.1	–
293.15 K, 7010 kPa	1125.9	–
293.15 K, 9950 kPa	1127.2	–
293.15 K, 14850 kPa	1129.3	–
293.15 K, 19770 kPa	1131.3	–
293.15 K, 24660 kPa	1133.3	–
293.15 K, 29510 kPa	1135.2	–
293.15 K, 34610 kPa	1137.2	–
293.15 K, 39370 kPa	1139.1	–
293.15 K, 44320 kPa	1141	–
293.15 K, 49130 kPa	1142.8	–
293.15 K, 54050 kPa	1144.6	–
293.15 K, 59060 kPa	1146.4	–
293.15 K, 63780 kPa	1148	–
293.35 K, 240 kPa	–	46.83 mPa·s [middle of 4 runs]
293.35 K, 1160 kPa	–	47.82 mPa·s
293.35 K, 1200 kPa	–	47.73 mPa·s
293.35 K, 1230 kPa	–	47.49 mPa·s
293.35 K, 1240 kPa	–	47.46 mPa·s and 47.21 mPa·s and 47.42 mPa·s
293.35 K, 2170 kPa	–	48.09 mPa·s
293.35 K, 2200 kPa	–	47.9 mPa·s
293.35 K, 2220 kPa	–	47.44 mPa·s
293.35 K, 2270 kPa	–	47.58 mPa·s
293.35 K, 5010 kPa	–	49.43 mPa·s
293.35 K, 5030 kPa	–	49.23 mPa·s
293.35 K, 5040 kPa	–	49.42 mPa·s
293.35 K, 10520 kPa	–	51.72 mPa·s
293.35 K, 10530 kPa	–	51.62 mPa·s
293.35 K, 10540 kPa	–	51.26 mPa·s
293.35 K, 10620 kPa	–	51.34 mPa·s
293.35 K, 10630 kPa	–	51.5 mPa·s
293.35 K, 20180 kPa	–	56.36 mPa·s
293.35 K, 20210 kPa	–	56.39 mPa·s and 56.29 mPa·s and 56.71 mPa·s
293.35 K, 29650 kPa	–	61.22 mPa·s
293.35 K, 29660 kPa	–	61.45 mPa·s
293.35 K, 62400 kPa	–	81.01 mPa·s
293.35 K, 62810 kPa	–	81.71 mPa·s
293.35 K, 63230 kPa	–	82.04 mPa·s
303 K, 190 kPa	–	28.88 mPa·s [middle of 5 runs]
303 K, 330 kPa	–	28.5 mPa·s and 29.08 mPa·s
303 K, 340 kPa	–	29.02 mPa·s
303 K, 1210 kPa	–	29.06 mPa·s
303 K, 1220 kPa	–	29.35 mPa·s and 29.62 mPa·s
303 K, 2000 kPa	–	29.4 mPa·s
303 K, 2020 kPa	–	29.29 mPa·s
303 K, 2030 kPa	–	29.32 mPa·s
303 K, 2100 kPa	–	29.31 mPa·s
303 K, 2150 kPa	–	29.15 mPa·s
303 K, 5250 kPa	–	30.07 mPa·s
303 K, 5270 kPa	–	30.07 mPa·s
303 K, 5280 kPa	–	30.31 mPa·s
303 K, 10160 kPa	–	31.63 mPa·s
303 K, 10170 kPa	–	31.41 mPa·s
303 K, 10190 kPa	–	31.65 mPa·s
303 K, 10210 kPa	–	31.52 mPa·s
303 K, 10220 kPa	–	31.49 mPa·s and 31.52 mPa·s
303 K, 20290 kPa	–	34.2 mPa·s
303 K, 20300 kPa	–	34.25 mPa·s
303 K, 20320 kPa	–	34.32 mPa·s
303 K, 20330 kPa	–	34.25 mPa·s and 34.3 mPa·s
303 K, 30260 kPa	–	37.03 mPa·s and 37.15 mPa·s and 37.36 mPa·s
303 K, 30270 kPa	–	37 mPa·s
303 K, 50510 kPa	–	43.39 mPa·s
303 K, 50590 kPa	–	43.57 mPa·s
303 K, 50660 kPa	–	43.63 mPa·s
303 K, 64010 kPa	–	47.91 mPa·s
